Values quoted from earlier work, collected in patent publication US4599352A, “Antineoplastic platinum (IV) complexes and compositions” (priority 1984, dated 1986).

Experiments:
[1] = system: sarcoma-180, ascites form; details: cited from earlier work
[2] = system: leukemia L1210; details: cited from earlier work

SMILES	Antitumor efficacy ranking [1]	Antitumor activity ranking [2]
NC1CCCCC1N.[Cl-].[Cl-].[Pt+2] (stereo not drawn) [Cis-dichloro-cis-1,2-cyclohexanediamine platinum (II)]	more efficacious than the corresponding trans isomers	least active
[Cl][Pt]1([Cl])[NH]C2CCCCC2[NH]1 (single isomer, unassigned) [dichloro (1,2-diaminocyclohexane) platinum (II) complex trans (1) isomer]		highest activity
[Cl][Pt]1([Cl])[NH]C2CCCCC2[NH]1 (single isomer, unassigned) [dichloro (1,2-diaminocyclohexane) platinum (II) complex trans (d) isomer]		intermediate activity
